# Results: PMC12648288, “Drastic Impact of Donor Substituents on Xanthenes in the PDT of Glioblastoma” (JACS Au, 2025)
# How the values were obtained:
# U118MG cells = test: Lipid peroxidation (TBARS); assay type: cell-based, human; conditions: IC50 concentration, PDT, up to 24 h postirradiation, % of untreated control
# Protocol: (§1) Further analysis was conducted to elucidate mitochondrial- or lysosomal-localization-dependent cell death mechanisms. For this purpose, lipid peroxidation, a major end product of ROS-mediated cellular damage, was assessed. […] Moreover, the pronounced rise in lipid peroxidation was predominantly evident during the 24 h resting stage rather than immediately after light exposure, as observed with NSeAze. The apparent increase in lipid peroxidation explains the damage to the membranous structures of cells, such as mitochondria, lysosomes, and plasma membranes (Figure a,b). This was further confirmed by the detection of free unsaturated lipid content of cells, which is released upon disruption of the membranous structures.
# (§2) Determination of lipid peroxidation
# (§3) The effect of NSeMorph and NSeAze on lipid peroxidation was investigated using thiobarbituric acid reactive substances (TBARS) method,1 which is based on measuring malondialdehyde (MDA) levels, the end-product of lipid peroxidation. For this purpose, cells were seeded in 6-well plates at a density of 1 × 10^6 cells/well and incubated overnight. Afterwards, both compounds were administered in IC50 values according to the above-mentioned PDT protocol. The resulting lipid peroxidation was measured following the immediate irradiation and after 24 h of resting stage. After the indicated time periods, cells were harvested and lysed with a RIPA cell lysis buffer (Merck, Germany). The lysates were then prepared according to the TBARS assay protocol. Briefly, the samples were mixed with 0.8% thiobarbituric acid prepared in 20% trichloroacetic acid solution and then incubated for 2 h at 95 °C. Absorbance of the resulting pink-to-red color was measured at 532 nm with a spectrophotometer (Thermo, Germany). Data were expressed as % compared to untreated control group and normalized to cell viability rates (n=6). […]
# U87MG cells = test: Lipid peroxidation (TBARS); assay type: cell-based, human; conditions: IC50 concentration, PDT, up to 24 h postirradiation, % of untreated control
# Protocol: as §1, §2, §3
# [1] = Absorption and emission spectra, fluorescence quantum yield; assay type: physicochemical; conditions: for ε (M^–1 cm^–1) / λabs (nm) / λems (nm): In PBS (pH 7.4, 1% DMSO); for φF (%) fluorescence quantum yield: Reference: methylene blue in MeOH (φF = 23%)
# Protocol: First, the absorption and emission spectra of both PSs, NSeMorph and NSeAze, were recorded in PBS buffer (pH 7.4, 1% DMSO).
# Photophysical Characterization
# Fluorescence Quantum Yield
# Fluorescence quantum yields of the samples were investigated using a fluorescence spectrometer (FLS 1000, Edinburgh Instruments) equipped with an integrating sphere accessory. A continuous-wave xenon lamp served as the excitation source, and the emitted fluorescence was detected with a standard photomultiplier (PMT-900) covering a wavelength range of 200-800 nm. During measurements, the PMT was cooled to - 20 °C using a built-in housing to reduce undesired dark current noise.
# For quantum yield measurement, an integrating sphere (Edinburgh Instruments) was placed inside the spectrometer's sample compartment. The internal cavity of the sphere was coated with a PTFE-like material, enabling a reflectance of approximately […]
# respectively. The sphere had two ports positioned 90° apart. The excitation beam was directed to the sample through the excitation port, and the fluorescence was collected from the emission port. The excitation port of the sphere included a lens to effectively focus the beam on the sample, while the emission port was an open aperture.
# Prior to the experiments with the PSs, blank spectra were measured using the reference solvents (PBS, pH 7.4, 1% DMSO). For both measurements (blank and sample), two identical quartz cuvettes with equal volumes were used. Initially, the reference sample was placed inside the sphere, and the emission/excitation slits were adjusted to the excitation wavelength to ensure the PMT's response remained linear during measurements. To cover a scattering range, the emission scans started 20 nm below the actual excitation wavelengths and ended at 900 nm. Additionally, the step size and integration time of the measurements were set to 1 nm and 0.2 seconds, […]
# Upon completing all emission measurements of the samples and references, the quantum yields of the samples were determined using the Fluoracle software. The built-in analysis tool calculates the quantum yield (QY) as: […]
# where Es (EB) and Ss (SB) are the selected areas for the emitted and scattered signals
# [2] = assay type: physicochemical; conditions: pH 5.4
# Protocol: Before singlet oxygen trapping experiments were conducted, the photostability of NSeMorph and NSeAze was evaluated under irradiation with a 660 nm LED light source (24.3 mW/cm^2). […] Subsequently, their singlet oxygen generation capabilities were assessed in PBS buffer. 2,2′-(Anthracene-9,10-diyl)-bis(methylene)-dimalonic acid was used as a singlet oxygen trap to determine the quantum yields of singlet oxygen generation (ΦΔ). […] Furthermore, the ROS generation capabilities of the PSs were also evaluated using singlet oxygen sensor green (SOSG).
# The gradual but pronounced lysosomal accumulation over time of NSeMoprh, coupled with only moderate mitochondrial targeting, restrict its ability to induce cell death via direct mitochondrial ROS production effectively. Conversely, NSeAze achieves rapid and efficient mitochondrial localization within the first hour of treatment in addition to significant lysosomal localization as well. […] To eliminate the possibility of degradation in lysosomes due to their acidic nature, the stabilities of both NSeMorph and NSeAze were evaluated at different pHs under both dark and light conditions.
# Figure S5. Photostability of NSeMorph (20 μM) in sodium citrate buffer (1% DMSO) a. pH 5.4 and e. pH 6.4 upon irradiation with LED light (660 nm, 100 s total irradiation time) and its time dependent absorbance profile at b. pH 5.4, f. pH 6.4. […]
SMILES,Lipid peroxidation (U118MG cells),Lipid peroxidation (U87MG cells),ε (M^–1 cm^–1) [1],λabs (nm) [1],λems (nm) [1],φF (%) fluorescence quantum yield [1],Photostability [2]
c1cc2nc3ccc(=[N+]4CCC4)cc-3[se]c2cc1N1CCC1 [NSeAze],245.24 ± 5.92%,309.64 ± 13.20%,"15,300 M^–1 cm^–1",671 nm,695 nm,8.2%,no significant photodecomposition
c1cc2nc3ccc(=[N+]4CCOCC4)cc-3[se]c2cc1N1CCOCC1 [NSeMorph],244.22 ± 2.38%,216.73 ± 3.98%,"16,600 M^–1 cm^–1",671 nm,717 nm,1.1%,no significant photodecomposition
